ChEMBL document CHEMBL6177970, “Semisynthetic Derivatives of Perovskone: Development of a Promising Class of Antiprotozoal Lead Compounds” (J Nat Prod, 2025)
pIC50: −log10 of the molar value.

Legend:
Leishmania donovani = experiment: Antileishmanial activity against axenically grown amastigotes Leishmania donovani MHOM-ET-67/L82 measured after 72 hrs by inverted microscopy; assay type: functional, organism-based; details: MHOM-ET-67/L82, 72 h
[1] = Selectivity index, ratio of IC50 for cytotoxicity against rat myoblast L6 cells to IC50 for antiprotozoal activity against Trypanosoma cruzi Tulahuen C2C4 intracellular amastigotes; assay type: toxicity, cell-based; details: read-out: Selectivity Index
[2] = Selectivity index, ratio of IC50 for cytotoxicity against rat myoblast L6 cells to IC50 for antiprotozoal activity against Trypanosoma brucei rhodesiense STIB900 trypomastigotes; assay type: toxicity, cell-based; details: read-out: Selectivity Index
[3] = Cytotoxicity against rat myoblast L6 cells measured after 72 hrs by inverted microscopy; assay type: toxicity, cell-based
Plasmodium falciparum = experiment: Antiplasmodial activity against Plasmodium falciparum NF54 intraerythrocytic forms measured after 72 hrs by 3H-hypoxanthine based liquid scintillation counting analysis; assay type: functional, organism-based
[4] = Selectivity index, ratio of IC50 for cytotoxicity against rat myoblast L6 cells to IC50 for antiplasmodial activity against Plasmodium falciparum NF54 intraerythrocytic forms; assay type: toxicity, cell-based; details: read-out: Selectivity Index
Trypanosoma cruzi = experiment: Antiprotozoal activity against Trypanosoma cruzi Tulahuen C2C4 intracellular amastigotes measured after 96 hrs by inverted microscopy; assay type: functional, organism-based; details: Tulahuen C2C4, 96 h
[5] = Selectivity index, ratio of IC50 for cytotoxicity against rat myoblast L6 cells to IC50 for antileishmanial activity against axenically grown amastigotes Leishmania donovani MHOM-ET-67/L82; assay type: toxicity, cell-based; details: read-out: Selectivity Index
[6] = test system: Trypanosoma brucei rhodesiense; experiment: Antiprotozoal activity against Trypanosoma brucei rhodesiense STIB900 trypomastigotes measured after 72 to 74 hrs; assay type: functional, organism-based

| pIC50 (Leishmania donovani) | pIC50 (Plasmodium falciparum) | pIC50 (Trypanosoma cruzi) | pIC50 [6] | SMILES | selectivity ratio [1] | selectivity ratio [2] | IC50 at 72 h [3] | selectivity ratio [4] | selectivity ratio [5] |
| --- | --- | --- | --- | --- | --- | --- | --- | --- | --- |
| 5.32 | 6.10 | 4.92 | 4.61 | CC(C)C1=C2OC(C)(C)[C@@H]3CC4[C@@H](C)[C@H](B(F)F)C[C@@]5(CC[C@H]6C(C)(C)CCC[C@]67C[C@]45[C@@]23O7)C1=O (some centres undefined) | 2.9 | 1.4 | 35 µM | 43.8 | 7.3 |
| 5.22 | 7.10 | 5.08 | 5.00 | CC1=CC[C@]23CC[C@H]4C(C)(C)CCC[C@]45C[C@]24[C@@]1(O)C[C@H]1C(C)(C)OC(=C(C(C)C)C3=O)[C@@]14O5 | 0.8 | 0.7 | 6.9 µM | 80 | 1.1 |
| 4.39 | 5.59 | 4.48 | 4.59 | CC(C)C1=C2OC(C)(C)[C@@H]3CC4[C@H](C)[C@@H](O)C[C@@]5(CC[C@H]6C(C)(C)CCC[C@]67C[C@]45[C@@]23O7)C1=O (some centres undefined) | 4.1 | 5.3 | 136 µM | 53.1 | 3.3 |
| 4.84 | 7.52 | 5.15 | 4.23 | CC1=C2C[C@H]3C(C)(C)OC4=C(C(C)C)C(=O)[C@@]5(C=C1)CC[C@H]1C(C)(C)CCC[C@]16C[C@]25[C@@]43O6 | 3.6 | 0.4 | 26.3 µM | 843 | 1.9 |
| 4.57 | 6.05 | 4.81 | 4.49 | CC1=CC[C@]23CC[C@H]4C(C)(C)CCC[C@]45C[C@]24C1=C[C@H]1C(C)(C)OC(=C(C(C)C)C3=O)[C@@]14O5 | 1.5 | 0.7 | 23.9 µM | 26.8 | 0.9 |
| 5.00 | 5.29 | 4.72 | 4.41 | CC(C)C1=C2OC(C)(C)[C@@H]3CC4[C@@H](C)[C@H](O)C[C@@]5(CC[C@H]6C(C)(C)CCC[C@]67C[C@]45[C@@]23O7)C1=O (some centres undefined) | 1.9 | 0.9 | 36.7 µM | 7.1 | 3.7 |
| 6.36 | 5.25 | 5.15 | 4.61 | CC(C)C1=C2OC(C)(C)[C@@H]3CC4[C@H](C)[C@@H](OC(=O)CCC(=O)O)C[C@@]5(CC[C@H]6C(C)(C)CCC[C@]67C[C@]45[C@@]23O7)C1=O (some centres undefined) | 1.4 | 0.4 | 9.7 µM | 1.7 | 22 |

| SMILES | pIC50 (Leishmania donovani) | pIC50 (Plasmodium falciparum) | pIC50 (Trypanosoma cruzi) | pIC50 [6] | selectivity ratio [1] | selectivity ratio [2] | IC50 at 72 h [3] | selectivity ratio [4] | selectivity ratio [5] |
| --- | --- | --- | --- | --- | --- | --- | --- | --- | --- |
| O=C(Cn1ccnc1[N+](=O)[O-])NCc1ccccc1 [BENZNIDAZOLE] |  |  | 5.58 |  |  |  |  |  |  |
